Data: patent publication US7700608B2, “Quinazoline derivatives and their use in the treatment of thrombocythemia” (Shire Holdings AG, priority 2004, dated 2010)

What was measured:
[1] = test system: Cord blood CD34+ cells; assay: TPO-induced megakaryocytic maturation/differentiation of cord blood CD34+ cells in culture; assay type: cell-based; details: for inhibition at 0.03 µM: 30 nM, CD34+ cells grown with TPO in plasma-containing medium, vs. control, read-out: inhibition of megakaryocytic maturation (percentage of GPIIIa positive cells); for Cell expansion % of control / GPIIIa expression median fluorescence % of control / GPIIIa positive cells % of control / Relative cell size % of control: 1.0 μM, 12 days, plasma-containing medium with TPO, mean ± SE, n = 4; for concentration giving maximal effect on megakaryocyte maturation / IC50: TPO-induced maturation, FIG. 1; for IC50: mean of 2-4 independent experiments, read-out: IC50 against megakaryocyte maturation
Experimental: Chemicals. Compound #1 was kept at room temperature. Stock solutions (10 mM) were made in DMSO, or PBS pH 5. 0, as indicated. Stock solutions were diluted in culture medium immediately before addition to cell suspensions.
(§1) Cell culture and drug regimes. Cord blood CD34+ cells were purchased from Biowhittacker USA or were freshly isolated by immunomagnetic selection using standard laboratory procedures. Cells were seeded in 24-well tissue culture plates at a density of 0.15×10^6 cells/ml and cultured for 12-14 days in Iscove's modified Dulbecco's medium containing 40 ng/ml TPO (as described in Mathur A, Hong Y. Martin J F, Erusalimsky J D (2001) Megakaryocytic differentiation is accompanied by a reduction in cell migratory potential. Br J Haematol 112:459) with anagrelide, Compound #1, or vehicle (DMSO).
(§2) Cell counting. Cell density was determined using a Sysmex CDA-500 Particle Analyzer.
(§3) Analysis of megakaryocytic differentiation. CD61 expression (a marker of megakaryocytic differentiation) was quantified by flow cytometry using an anti-GPIIIa antibody. Cell diameter was determined using a Sysmex CDA-500 Particle Analyzer.

[2] = test system: non-megakaryocytic cells (CD61-); assay: Growth of non-megakaryocytic (CD61-) cells in the TPO-stimulated CD34+ cultures; assay type: cell-based; details: 12-day cultures, FIG. 2
Experimental: as §1, §2, §3
To assess whether the inhibitory activities of anagrelide and Compound #1 in these cultures were selective for the megakaryocytic lineage, the effects of these compounds were evaluated on the growth of the non-megakaryocytic cells. In 12-day control cultures these cells (CD61-) represent 20-30% of the total population.

IC50 [1] [nM]	Compound	inhibition at 0.03 µM [1] [%]	Cell expansion % of control [1]	GPIIIa expression median fluorescence % of control [1]	GPIIIa positive cells % of control [1]	Relative cell size % of control [1]	concentration giving maximal effect on megakaryocyte maturation [1] [µM]	effect on growth of non-megakaryocytic cells (selectivity for megakaryocytic lineage) [2]
110 to 130	O=CC(=O)NC1=Nc2ccc(Cl)c(Cl)c2CN1 [Compound #1, N-(5,6-dichloro-3,4-dihydroquinazolin-2-yl)-2-oxoacetamide]	20	45.8 ± 3.9 % of control	54.4 ± 14.7 % of control	34.5 ± 4.4 % of control	78.7 ± 5.3 % of control	1	neither anagrelide nor Compound #1 inhibited the growth of non-megakaryocytic cells
110 to 130	O=C1CN2Cc3c(ccc(Cl)c3Cl)N=C2N1 [Anagrelide]	28	48.0 ± 4.0 % of control	51.3 ± 11.9 % of control	41.9 ± 6.6 % of control	80.4 ± 4.5 % of control	1	neither anagrelide nor Compound #1 inhibited the growth of non-megakaryocytic cells
